Assay results published in US8703950B2, “Low ABUK oxycodone, its salts and methods of making same” (Johnson Matthey Public Limited Co., priority 2010, dated 2014).

Columns and labels:
[1] = Dry heat stress test (lab drying oven under air at 62° C., 14-hydroxycodeinone monitored by LC/MS); assay type: physicochemical; details: for growth of 14-hydroxycodeinone, dry heat: dry heat (greater than 60° C.), after 14 days; for ABUK (14-hydroxycodeinone) level, 4 days at 62° C. / ABUK (14-hydroxycodeinone) level, 7 days at 62° C. / ABUK (14-hydroxycodeinone) level, 14 days at 62° C.: dry heat, under air; for growth in the level of 14-hydroxycodeinone, dry heat at 62° C.: under air at 62° C., monitored for 14 days
Protocol: A 0.0225 g (0.597 sample of low ABUK oxycodone HCl (T-zero: 3.9 ppm 14-hydroxycodeinone) was placed in a standard lab drying oven under air at 62° C. and the level of 14-hydroxycodeinone was monitored by LC/MS for 14 days. No growth in the level of 14-hydroxycodeinone was observed.
A 0.0225 g (0.597 sample of low ABUK oxycodone (T zero: 3.3 ppm 14-hydroxycodeinone by LC/MS was placed in a standard lab drying oven under air at 62° C. and the level of 14-hydroxycodeinone was monitored by LC/MS for 14 days. No growth in the level of 14-hydroxycodeinone was observed
1.10 Procedure: • Separately inject the diluent as a blank. • Inject the resolution solution once. • Inject the impurity working standard three times. • Inject each sample solution under the full gradient. • Inject the diluent at the end. • Quantify the level of 14-Hydroxy Codeinone in the sample by comparing to the averaged corresponding peak specific response (SR) of the standard solution. • Report the level of 14-Hydroxy Codeinone found in the sample to the nearest 0.0001%. • Report the peak area of the diols for information only.

[2] = Hot acid stress test (aq. HCl, 65° C., 14-hydroxycodeinone monitored by LC/MS); assay type: physicochemical; details: for growth in 14-hydroxycodeinone in hot acid: 65° C. aq. hydrochloride acid at pH<1, after 24 hours; for ABUK (14-hydroxycodeinone) level, 2 hours in hot acid / ABUK (14-hydroxycodeinone) level, 5 hours in hot acid / ABUK (14-hydroxycodeinone) level, 24 hours in hot acid: 65° C., aq. HCl; for ABUK (14-hydroxycodeinone) level, 0 hours in hot acid (T-zero): before heating, water + 3N aq. HCl
[3] = mixture of the two diol species in acid, 20 hour period

Structure (SMILES)	ABUK (14-hydroxycodeinone) level, T-zero (dry heat test) [1] [ppm]	growth of 14-hydroxycodeinone, dry heat [1]	ABUK (14-hydroxycodeinone) level, 4 days at 62° C. [1] [ppm]	ABUK (14-hydroxycodeinone) level, 7 days at 62° C. [1] [ppm]	ABUK (14-hydroxycodeinone) level, 14 days at 62° C. [1] [ppm]	growth in the level of 14-hydroxycodeinone, dry heat at 62° C. [1]	growth in 14-hydroxycodeinone in hot acid [2]	ABUK (14-hydroxycodeinone) level, 2 hours in hot acid [2] [ppm]	ABUK (14-hydroxycodeinone) level, 5 hours in hot acid [2] [ppm]	ABUK (14-hydroxycodeinone) level, 24 hours in hot acid [2] [ppm]	ABUK (14-hydroxycodeinone) level, 0 hours in hot acid (T-zero) [2] [ppm]	ABUK (14-hydroxycodeinone) level, 0 hours in hot acid (T-zero) ([2]; listed as low ABUK oxycodone base) [ppm]	degradation on exposure to acid [3]
COc1ccc2c3c1O[C@H]1C(=O)CC[C@@]4(O)[C@@H](C2)N(C)CC[C@]314.Cl [Oxycodone Hydrochloride from Example 11, oxycodone HCl]	3.9	no growth	3.7	4.0	3.7	No growth	no or minimal growth	3.6	4.2	6.1	2.5	–	–
COc1ccc2c3c1O[C@H]1C(=O)CC[C@@]4(O)[C@@H](C2)N(C)CC[C@]314 [Oxycodone Base from Example 9, oxycodone base]	3.3	no growth	3.4	3.3	3.6	No growth	no or minimal growth	2.5	3.3	6.4	2.5	2.7	–
COc1ccc2c3c1O[C@H]1C(=O)C[C@H](O)[C@@]4(O)[C@@H](C2)N(C)CC[C@]314 (single isomer, unassigned) [peak at RRT 0.91]	–	–	–	–	–	–	–	–	–	–	–	–	degraded little
